Source: ChEMBL document CHEMBL1201862, “PubChem BioAssay data set” (2004)
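Exposure lasted 48 hours, with cells grown in 96-well plates and compounds tested at five concentrations. GI50 = concentration required for 50% inhibition of growth.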 The source made the active and inactive calls. Cut-off read from the data, not from the text of the source: active = GI50 up to about 1.1 µM and inactive = higher.

Assays:
Assay in all cases: inhibition of tumour cell growth, NCI panel, 48 h
786-0 = system: 786-0
A549 = system: A549
DU-145 = system: DU-145
HCT-116 = system: HCT-116
HCT-15 = system: HCT-15
HT-29 = system: HT-29
LOX IMVI = system: LOX IMVI
MDA-MB-435 = system: MDA-MB-435
MOLT-4 = system: MOLT-4
Malme-3M = system: Malme-3M
NCI-H226 = system: NCI-H226
RPMI-8226 = system: RPMI-8226
SF-295 = system: SF-295
SK-MEL-2 = system: SK-MEL-2
SR = system: SR
TK-10 = system: TK-10
U-251 = system: U-251
UACC-257 = system: UACC-257
UACC-62 = system: UACC-62
UO-31 = system: UO-31

Structure (SMILES) | GI50 (786-0) | GI50 (A549) | GI50 (DU-145) | GI50 (HCT-116) | GI50 (HCT-15) | GI50 (HT-29) | GI50 (LOX IMVI) | GI50 (MDA-MB-435) | GI50 (MOLT-4) | GI50 (Malme-3M) | GI50 (NCI-H226) | GI50 (RPMI-8226) | GI50 (SF-295) | GI50 (SK-MEL-2) | GI50 (SR) | GI50 (TK-10) | GI50 (U-251) | GI50 (UACC-257) | GI50 (UACC-62) | GI50 (UO-31)
COC(C)(C)[C@@H](O)[C@H]1C[C@H](C)[C@@]2(CC[C@]3(C)[C@@H]2CC[C@@H]2[C@@]4(C)CC[C@@H](OC(C)=O)C(C)(C)[C@@H]4C[C@@H](OC4OC(COC(C)=O)C(O)C(O)C4O)[C@]23C)O1 (stereo not given in full) | 5.86 µM (inactive) | 4.01 µM (inactive) | 4.37 µM (inactive) | 3.25 µM (inactive) | 2.39 µM | 1.89 µM (inactive) | 3.9 µM (inactive) | 3.29 µM (inactive) | 2.32 µM (inactive) | 10.5 µM (inactive) | 4.75 µM (inactive) | 2.42 µM (inactive) | 4.51 µM (inactive) | 4.75 µM (inactive) | 2.52 µM (inactive) | 12.2 µM (inactive) | 5.7 µM (inactive) | 6.44 µM (inactive) | 4.93 µM (inactive) | 4.67 µM (inactive)
O=C(O)COc1c(Cl)cc(Cl)c2cccnc12 | > 100 µM (inactive) | > 100 µM (inactive) | > 100 µM (inactive) | > 100 µM (inactive) | > 100 µM | > 100 µM (inactive) | > 100 µM (inactive) | > 100 µM (inactive) | > 100 µM (inactive) | > 100 µM (inactive) | > 100 µM (inactive) | > 100 µM (inactive) | > 100 µM (inactive) | > 100 µM (inactive) | > 100 µM (inactive) | > 100 µM (inactive) | > 100 µM (inactive) | > 100 µM (inactive) | > 100 µM (inactive) | > 100 µM (inactive)
[N-]=[N+]=Nc1c([N+](=O)[O-])c(Cl)nc2ccccc12 | 0.541 µM (active) | 16.8 µM (inactive) | 2.13 µM (inactive) | 1.63 µM (inactive) | 1.83 µM | 2.18 µM (inactive) | 1.59 µM (inactive) | 2.38 µM (inactive) | 0.587 µM (active) | 1.69 µM (inactive) | 10.6 µM (inactive) | 1.77 µM (inactive) | 19.4 µM (inactive) | 1.4 µM (inactive) | 0.604 µM (active) | 2.25 µM (inactive) | 5.96 µM (inactive) | 1.69 µM (inactive) | 4.37 µM (inactive) | 0.632 µM (active)
CC(C)(Cl)C(Cl)CC/C(CBr)=C(\Cl)CBr (stereo not given) | 1.36 µM (inactive) | 10.6 µM (inactive) | 7.5 µM (inactive) | 2.23 µM (inactive) | 1.75 µM | 2.84 µM (inactive) | 0.209 µM (active) | 2.37 µM (inactive) | 0.473 µM (active) | 2.11 µM (inactive) | 1.79 µM (inactive) | 0.706 µM (active) | 6.49 µM (inactive) | 1.67 µM (inactive) | 0.443 µM (active) | 1.95 µM (inactive) | 1.83 µM (inactive) | 2.08 µM (inactive) | 1.76 µM (inactive) | 3.08 µM (inactive)
Cc1occc1C(=S)Nc1ccc(Cl)c(C(=O)OC(C(C)C)C(C)C)c1 | 13.7 µM (inactive) | 11.6 µM (inactive) | 13.7 µM (inactive) | 10.1 µM (inactive) | 13.1 µM | 14.1 µM (inactive) | 13 µM (inactive) | 15.1 µM (inactive) | 5.32 µM (inactive) | 12 µM (inactive) | 15.2 µM (inactive) | 6.11 µM (inactive) | 5.47 µM (inactive) | 16.5 µM (inactive) | 7 µM (inactive) | 15.3 µM (inactive) | 10.8 µM (inactive) | 4.85 µM (inactive) | 10.8 µM (inactive) | 5 µM (inactive)
Cc1cc(Cl)nc(NC(=O)CSc2ccc(Cl)cc2)n1 | > 100 µM (inactive) | > 100 µM (inactive) | > 100 µM (inactive) | > 100 µM (inactive) | > 100 µM | > 100 µM (inactive) | > 100 µM (inactive) | > 100 µM (inactive) | > 100 µM (inactive) | 64.7 µM (inactive) | 22.1 µM (inactive) | 38.6 µM (inactive) | > 100 µM (inactive) | > 100 µM (inactive) | > 100 µM (inactive) | > 100 µM (inactive) | > 100 µM (inactive) | > 100 µM (inactive) | > 100 µM (inactive) | > 100 µM (inactive)
NC1=NC(c2ccc(Cl)cc2)N(c2ccc(S(N)(=O)=O)cc2)C(N)=N1 (stereo not given) | > 100 µM (inactive) | > 100 µM (inactive) | > 100 µM (inactive) | > 100 µM (inactive) | > 100 µM | > 100 µM (inactive) | > 100 µM (inactive) | > 100 µM (inactive) | > 100 µM (inactive) | > 100 µM (inactive) | > 100 µM (inactive) | > 100 µM (inactive) | > 100 µM (inactive) | > 100 µM (inactive) | > 100 µM (inactive) | > 100 µM (inactive) | > 100 µM (inactive) | > 100 µM (inactive) | > 100 µM (inactive) | > 100 µM (inactive)
